Assay results published in paper PMC6348381, “Discovery of an MLLT1/3 YEATS Domain Chemical Probe” (Angewandte Chemie (International Ed. in English), 2018).

Test system: MV4;11 AML cells
Experiment: qPCR gene expression in MV4;11 cells
Type: cell-based, human
Conditions: 1 μM, 72 h
Description: II.XII Analysis of gene expression by quantitative polymerase chain reaction (qPCR) […]
MV4;11 cells were cultured at 37 °C in a humidified 5% CO2 atmosphere in RPMI medium containing 10% FBS and 1% L-glutamine. Cells were seeded at a density of 2 x 10^6 cells/well in 6 well plates pre-coated in polyhema, to enable suspension culture. Cells were […]
and washing with PBS, RNA was extracted from cells using RNeasy Mini Kit (Qiagen), following the manufacturer’s protocol. Total RNA was quantified by Nanodrop and 500 ng of RNA was converted to cDNA using GoScript Reverse Transcription System (Promega). The final cDNA products were quantified by QPCR using FAM dye-labelled Taqman primers and probe sets (see table below). Data was analysed using the comparative cycle threshold (CT) method where CT values were normalised by subtracting that from an endogenous housekeeping gene (VIC dye-labelled ACTB). The gene expression levels from compound-treated cells are presented as relative to those of DMSO treated control cells. Statistical analyses were carried out using two-way ANOVA (GraphPad Prism 7).
ACTB (Beta Actin) Endogenous Control 4326315E
Supplementary Table 4. Taqman Gene Expression Assays (Life Technologies). Taqman MGB probes have 5’ FAM reporter dye (or VIC) and 3’ non-fluorescent quencher. […]

| SMILES | gene expression of MYC, MPO, DDN, CTSG, CD86 (qPCR) |
| --- | --- |
| C[C@@H]1CCCN1Cc1nc2cc(NC(=O)c3ccc4c(cnn4C)c3)ccc2[nH]1 [Compound 91] | diminished cell activity |

Target: T1, MLLT1 YD (Homo sapiens, UniProt Q03111)
T1 construct: made in house; host or cells: E. coli Rosetta
T1 sequence (Q03111 1-138 limits assumed): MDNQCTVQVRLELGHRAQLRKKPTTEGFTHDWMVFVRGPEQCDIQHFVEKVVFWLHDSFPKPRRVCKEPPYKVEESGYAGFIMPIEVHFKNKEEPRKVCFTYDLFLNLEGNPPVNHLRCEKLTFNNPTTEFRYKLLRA
Experiment: AlphaScreen (AS) assay, MLLT1 YEATS domain
Type: binding
Conditions: not given
Description: II.IV Protein Expression and Purification
Human bromodomains were cloned, expressed and purified as previously described. The cloning, expression and purification of human YEATS domains are described as follows; Sequences for the wild type YEATS domains of MLLT1, MLLT3, GAS41 and YEATS2 were cloned into expression vectors (Table S1). E. coli Rosetta cells were grown in TB medium at 37°C. Overexpression was induced after five hours by addition of IPTG to a final concentration of 0.4 mM and cells were incubated at 17°C overnight. Cells were harvested by centrifugation and the cell pellet was resuspended in cold binding buffer (50 mM Tris at pH 7.5, 500 mM NaCl, 20 mM imidazole, 2 mM DTT) on a magnetic stirring plate at 4°C. The suspension was lysed using an Avestin EmulsiFlex-C5 homogeniser (1 pass without pressure, four passes with pressure between 1000-1500 bar). The lysate was clarified via centrifugation at 16,000 rpm at 4°C for 1 hour (JLA-16 rotor in Beckmann Coulter Avanti J- […]
The supernatant was loaded onto a standard NiNTA column (HisTrap
FF, 5 ml, GE Healthcare Lifesciences) on an ÄKTAxpress system (GE). After washing with binding buffer, the target protein was eluted at 300 mM imidazole. The eluted peak fractions were pooled and concentrated to 5 ml (Amicon concentrators, 10 kDa molecular weight cut off (MWCO)) and then separated via size exclusion chromatography (buffered with 20 mM Tris at pH 7.5, 500 mM NaCl, 2 mM DTT) using a GE Superdex 75 column on an […]
(NanoDrop ND-1000 Spectrophotometer) and protein identity was verified via SDS-PAGE and LC/MS. Pooled fractions were then again concentrated to at least 2 mg/ml and stored at […]
(§1) (1 picture or pasted object on this page, not shown here)

| SMILES | IC50 [µM] |
| --- | --- |
| O=C(Nc1ccc2[nH]c(CN3CCCCC3)nc2c1)c1ccccc1Cl [Compound 68] | > 20 |
| COc1ccccc1C(=O)Nc1ccc2[nH]c(CN3CCCCC3)nc2c1 [Compound 69] | > 20 |
| O=C(Nc1ccc2[nH]c(CN3CCCCC3)nc2c1)c1cccc(OC(F)(F)F)c1 [Compound 70] | > 20 |
| Cc1ccc(C(=O)Nc2ccc3[nH]c(CN4CCCCC4)nc3c2)cc1C [Compound 72] | 5.5 ± 0.06 |
| COc1ccc(C(=O)Nc2ccc3[nH]c(CN4CCCCC4)nc3c2)cc1 [Compound 74] | 6.4 ± 0.65 |
| O=C(Nc1ccc2[nH]c(CN3CCCCC3)nc2c1)c1ccc(-n2ccnc2)cc1 [Compound 77] | 1 ± 0.59 |
| Cn1ncc2cc(C(=O)Nc3ccc4[nH]c(CN5CCCCC5)nc4c3)ccc21 [Compound 79] | 1.6 ± 0.54 |
| C[C@@H]1CCC[C@H](C)N1Cc1nc2cc(NC(=O)c3ccc(Cl)cc3)ccc2[nH]1 [Compound 80] | > 20 |
| CC(c1nc2cc(NC(=O)c3ccc(Cl)cc3)ccc2[nH]1)N1CCCCC1 (stereo not drawn) [Compound 81] | > 20 |
| C[C@@H]1C[C@H](C)CN(Cc2nc3cc(NC(=O)c4ccc5c(cnn5C)c4)ccc3[nH]2)C1 [Compound 82] | 5.7 ± 2.4 |
| CC1CCN(Cc2nc3cc(NC(=O)c4ccccc4)ccc3[nH]2)CC1 [Compound 83] | > 20 |
| O=C(Nc1ccc2[nH]c(CCN3CCCCC3)nc2c1)c1ccc(Cl)cc1 [Compound 84] | > 20 |
| CC1CCCN1Cc1nc2cc(NC(=O)c3ccc(Cl)cc3)ccc2[nH]1 (stereo not drawn) [Compound 85] | 0.33 ± 0.11 |
| Cn1ncc2cc(C(=O)Nc3ccc4[nH]c(CN5C[C@H]6C[C@H]6C5)nc4c3)ccc21 [Compound 86] | 1.4 ± 0.86 |
| CCC1CCCN1Cc1nc2cc(NC(=O)c3ccc4c(cnn4C)c3)ccc2[nH]1 (stereo not drawn) [Compound 87] | 0.3 ± 0.06 |
| COCC1CCCN1Cc1nc2cc(NC(=O)c3ccc4c(cnn4C)c3)ccc2[nH]1 (stereo not drawn) [Compound 88] | 0.97 ± 0.47 |
| CC1CCN(Cc2nc3cc(NC(=O)c4ccc5c(cnn5C)c4)ccc3[nH]2)C1 (stereo not drawn) [Compound 89] | 0.6 ± 0.46 |
| CC1CCN(Cc2nc3cc(NC(=O)c4ccc5c(cnn5C)c4)ccc3[nH]2)C1 (stereo not drawn) [Compound 90] | 0.73 ± 0.59 |

Target: T2, MLLT1 (Homo sapiens, UniProt Q03111)
T2 construct: We also developed a full length MLLT1:Histone 3.3 (H3.3) NanoBRET assay; host or cells: HEK293
T2 sequence (Q03111 whole entry): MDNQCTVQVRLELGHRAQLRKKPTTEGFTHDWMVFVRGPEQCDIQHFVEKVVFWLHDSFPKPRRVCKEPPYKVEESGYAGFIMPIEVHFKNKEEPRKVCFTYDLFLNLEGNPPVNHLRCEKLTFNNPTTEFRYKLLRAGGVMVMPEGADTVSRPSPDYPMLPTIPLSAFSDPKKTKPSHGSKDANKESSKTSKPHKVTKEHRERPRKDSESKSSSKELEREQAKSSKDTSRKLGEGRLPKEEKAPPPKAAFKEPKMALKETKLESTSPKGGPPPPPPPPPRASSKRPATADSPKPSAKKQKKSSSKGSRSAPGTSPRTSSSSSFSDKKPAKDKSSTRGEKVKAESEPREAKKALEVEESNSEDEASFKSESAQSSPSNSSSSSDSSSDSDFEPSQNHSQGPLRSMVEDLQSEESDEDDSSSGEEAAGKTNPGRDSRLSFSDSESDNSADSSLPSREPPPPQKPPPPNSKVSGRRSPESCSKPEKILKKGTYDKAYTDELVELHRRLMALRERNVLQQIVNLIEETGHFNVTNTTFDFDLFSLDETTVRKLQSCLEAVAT
Experiment: NanoBRET assay, full length MLLT1:Histone 3.3 in HEK293 cells
Type: cell-based
Conditions: relative to the DMSO control
Description: Compounds were then added directly to media (in the presence of SAHA 2.5 M) at final concentrations 0.01-30 μM or an equivalent amount of DMSO as a vehicle control, and the plates were incubated for 24 h at 37 °C in the presence

| SMILES | BRET activity (mBU), MLLT1:H3.3 NanoBRET |
| --- | --- |
| O=C(CCCCCCC(=O)Nc1ccccc1)NO [SAHA, suberoylanilide hydroxamic acid, reference compound] | significant increase in BRET activity |

Target: T3, MLLT3 YD (Homo sapiens, UniProt P42568)
T3 construct: made in house; host or cells: E. coli Rosetta
Experiment: Isothermal titration calorimetry (ITC), MLLT3 YD
Type: binding
Conditions: not given
Description: Supplementary Table 1. AlphaScreen selectivity screen of compound 92 over other acyllysine […]
II.III Isothermal Titration Calorimetry (ITC)
Experiments were carried out on a Nano -ITC Standard Volume Instrument (TA Instruments).
All experiments were carried out at 25 °C in 20 mM HEPES pH 7.5, 150 mM NaCl, 0.5 mM TCEP and 5% glycerol. Protein soluti ons were buffer exchanged by gel filtration. The titrations were conducted using an initial injection of 2 μL followed by 32 injections of 8 μL.
Background dilution heat was subtracted from each experiment. Thermodynamic parameters […]
changes in free energy, enthalpy and entropy respectively. Independent single site binding models were employed in data analysis.
(also on this page, place not known: ac yllysine Nano-ITC -T 1/ KB. ΔH Molar&ratio&[injectant/cell] Time&[s] Corrected&Heat&Rate&[ucal/s] Experiment&1 K Experiment&2 K K)
as §1

| SMILES | Kd [µM] |
| --- | --- |
| C[C@@H]1CCCN1Cc1nc2cc(NC(=O)c3ccc4c(cnn4C)c3)ccc2[nH]1 [Compound 91] | 0.54 |

Target: T4, MLLT3 (Homo sapiens, UniProt P42568)
T4 construct: in full length MLLT3 N-terminal NanoLuc, Histone; host or cells: HEK293
T4 sequence (P42568 1-568): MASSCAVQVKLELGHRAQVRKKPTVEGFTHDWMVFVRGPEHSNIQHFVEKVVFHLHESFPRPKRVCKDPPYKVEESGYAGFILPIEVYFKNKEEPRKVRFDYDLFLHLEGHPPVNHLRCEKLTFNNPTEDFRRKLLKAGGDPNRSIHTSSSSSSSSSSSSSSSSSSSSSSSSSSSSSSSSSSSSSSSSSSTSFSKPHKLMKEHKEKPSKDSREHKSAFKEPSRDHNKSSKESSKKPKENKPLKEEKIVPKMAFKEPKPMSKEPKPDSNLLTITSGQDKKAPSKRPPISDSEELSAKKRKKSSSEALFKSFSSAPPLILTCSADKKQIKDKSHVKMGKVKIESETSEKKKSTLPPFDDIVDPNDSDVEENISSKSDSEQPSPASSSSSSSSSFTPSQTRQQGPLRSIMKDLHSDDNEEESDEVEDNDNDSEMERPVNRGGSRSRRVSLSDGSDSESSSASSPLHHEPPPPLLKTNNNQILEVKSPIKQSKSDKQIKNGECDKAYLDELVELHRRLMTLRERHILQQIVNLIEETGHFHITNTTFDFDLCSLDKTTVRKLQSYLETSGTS
Experiment: NanoBRET assay, full-length MLLT3-NanoLuc / histone H3.3-HaloTag in HEK293 cells
Type: cell-based
Conditions: 24 h, in the presence of 2.5 μM SAHA
Description: II.V NanoLuciferase Bioluminescent Resonance Energy Transfer (NanoBRET) Assay[2]
HEK293 cells ([…]) were plated in each well of a 6-well plate after 6 h cells were co-transfected with Histone H3.3-HaloTag (NM_002107) and a NanoLuciferase fusion of MLLT1 or MLLT3 (WT sequences from Promega HaloTag® human ORF in pFN21A) at a 1:500 and 1:10 (NanoLuc® to HaloTag®) ratio respectively with FuGENE HD transfection regent. Sixteen hours post-transfection, cells were collected and exchanged into media containing phenol red-free DMEM and 4% FBS in the absence (control sample) or the presence (experimental sample) of 100 nM NanoBRET 618 fluorescent ligand (Promega).
Cell density was adjusted to 2 x 10^5 cells/mL and then seeded 100 µL/well in a white 96-well plate (Corning Costar #3917). Compounds were then added directly to media (in the presence of SAHA 2.5 µM) at final concentrations 0.01-30 μM or an equivalent amount of DMSO as a vehicle control, and the plates were incubated for 24 h at 37 °C in the presence […]
NanoBRET Nano-Glo substrate (Promega) was added to both control and experimental samples at a final concentration of 10 µM. Readings were performed within 5 minutes using a ClarioSTAR (BMG labtech) equipped with LP 480 and 610 nm filters. A corrected BRET ratio was calculated and is defined as the ratio of the emission at 610 nm/[…] for experimental samples minus the emission at 6 10 nm/640 nm for control samples (not incubated with NanoBRET fluorescent ligand). BRET ratios are expressed as milliBRET units (mBU), where 1 mBU corresponds to the corrected BRET ratio multiplied by 1000.
3.3 C-terminal HaloTag in HEK293 cells. Treatment with SAHA (2.5 µM) alone increases MLLT3- […]
dependent manner. Mean±SD of BRET ratio (mBU), n=4 technical replicates.
(also on this page, place not known: 5) -well H3.3 -HaloTag pFN21A ) ( NanoLuc® H aloTag®) post -transfection, red -free Nano -Glo 10 5 6 10 6 10 l igand). cells . […]

| SMILES | IC50 [µM] |
| --- | --- |
| C[C@@H]1CCCN1Cc1nc2cc(NC(=O)c3ccc4c(cnn4C)c3)ccc2[nH]1 [Compound 91] | 5.8 ± 0.07 |

Same assay, conditions: 24 h, representative assay

| SMILES | MLLT3-Histone 3.3 interaction (mBU) |
| --- | --- |
| O=C(CCCCCCC(=O)Nc1ccccc1)NO [SAHA, suberoylanilide hydroxamic acid, reference compound] | increases |

Target: T5, endogenous MLLT1 in MV4;11 cells (Homo sapiens, UniProt Q03111)
T5 construct: with endogenous MLLT1 in MV4;11 cells; endogenous in cells; host or cells: MV4;11
T5 sequence (Q03111 whole entry): as the sequence (Q03111 whole entry) above
Experiment: Cellular thermal shift assay (CETSA), MV4;11 cells
Type: cell-based
Conditions: up to 10 μM
Description: Supplementary Table 2. Thermal stabilisation of compound 1, 92 and Bromosporine with recombinant human bromodomain proteins. *50 µM compound concentration. †10 µM compound […]
II.VIII Cellular Thermal Shift Assay[6]
HEK293 and MV4;11 cells were cultured at 37 °C in a humidified 5% CO2 atmosphere in DMEM Medium containing 10% FBS, respectively. Cells were grown until approximately […]
DMSO final concentrati on) for 30 minutes. Cells were then collected, washed with PBS, transferred in PCR tubes, and pelleted by centrifugation (300 g, 3 min, RT.) The PBS was removed, and the cell pellets heated at the indicated temperature for 3 minutes in a PCR machine (UNO96 , VMR) and then placed on ice. Lysis buffer (50 mM Tris pH 7.5, 0.8% v/v NP-40, 5% v/v glycerol, 1.5 mM MgCl2, 100 mM NaCl, 25 mM NaF, 1mM Na3VO4, 1mM PMSF, 1mM DTT, 10 μg/mL TLCK, 1 μg/mL Leupeptin, 1 μg/mL Aprotinin, 1 μg/mL soy bean trypsin, ≥250 units/ mL Benzonase) was added and the cells lysed by 3 freeze -thaw cycles in liquid nitrogen. Aggregated proteins were removed by centrifugation (17000 g, 20 min, 4 °C) and the protein concentration of the retained soluble fraction determined. 4× sample loading buffer (Bio-Rad) containing 20% v/v DTT was added and samples were heated for 6 min at 90 °C prior to separation by SDS -PAGE. […]

| SMILES | thermal stabilisation of MLLT1 (CETSA) |
| --- | --- |
| C[C@@H]1CCCN1Cc1nc2cc(NC(=O)c3ccc4c(cnn4C)c3)ccc2[nH]1 [Compound 91] | no thermal stabilisation |
